Reference: patent publication US7645781B2, “N-aryl-2-oxazolidinone-5-carboxamides and their derivatives” (Pfizer Inc, priority 2002, dated 2010)
Values after ≈ are worked out from the molar mass of the structure shown.

Assays:
[1] = tested on: Staphylococcus aureus (SAUR 9213); test: MIC by standard agar dilution method; type: cell-based; details: Mueller Hinton agar, incubated overnight at 35° C., read-out: MIC
Summary of the method: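 Serial 2-fold compound dilutions in Mueller Hinton agar, spot-inoculated with approximately 10^4 to 10^5 cells from a 1:20-diluted 0.5 McFarland suspension in TSB. Incubated overnight at 35 °C; MIC (μg/ml) is the lowest concentration preventing visible growth.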

Row | MIC [1] [µg/mL] | melting point [°C] | Compound
1 | 2 (≈ 6.26 µM) | 216 to 218 | CNC(=O)[C@H]1CN(c2ccc3c(c2)oc(=O)n3C(C)C)C(=O)O1 [Example 53, (5R)-(−)-N-Methyl-3-(2,3-dihydro-3-isopropyl-2-oxo-6-benzoxazolyl)-2-oxo-5-oxazolidinecarboxamide]
2 | 8 (≈ 22.9 µM) | 167 to 169 | C=CCNC(=O)[C@H]1CN(c2ccc(N3CCOCC3)c(F)c2)C(=O)O1 [Example 3, (5R)-(−)-3-[3-Fluoro-4-(4-morpholinyl)phenyl]-N-allyl-2-oxo-5-oxazolidinecarboxamide]
3 | 2 (≈ 5.64 µM) | 206 to 208 | NC(=O)[C@H]1CN(c2ccc(C3=CCS(=O)(=O)CC3)c(F)c2)C(=O)O1 [Example 12, (5R)-(−)-3-[4-(3,6-Dihydro-2H-thiopyran-4-yl)-3-fluorophenyl]-2-oxo-5-oxazolidinecarboxamide S,S-dioxide]
